# Experimental data as given in patent publication US12441751B2, “Metabolic labeling and molecular enhancement of biological materials using bioorthogonal reactions” (priority 2016, dated 2025).
# “Also recorded” adds a separate entry of the source.
# What was measured:
# [1] = system: acellular porcine lung ECM; test: Ex vivo metabolic engineering of porcine left lung ECM; settings: 50 μM, one day, perfusion 300 ml/min
# Protocol: For ex vivo metabolic engineering of the porcine lung, the left lung was freshly isolated from a male Yorkshire swine (18-20 kg, Tufts University). The isolated porcine left lung was cultured DMEM/F12-FBS medium, with the supplementation of Ac4GalNAz (50 μM) or DMSO (0.1%), for 24 hours in a bioreactor under constant rate perfusion (300 ml/min) through the left main PA. 3 L of medium was initially used and was refreshed once with another 2 L of medium after the initial 16 hours of culture. A parallel oxygenation loop was used during the culture at a flow rate of 150 ml/min. Following culture, the porcine left lung was decellularized by sequential single-pass perfusion through the left main PA with 0.5% SDS, distilled water, 1% Triton X and PBS, adapted from a previously described method (Zhou, H. et al. Bioengineering Human Lung Grafts on Porcine Matrix. Annals of Surgery Publish Ahead of Print (2017)). […] The fluorescence intensity of Azide-Biotin-Streptavidin and Laminin staining was quantified using ImageJ (NIH). […] Following BCA quantification, the protein samples were analyzed using SDS-PAGE under reducing condition, transferred to nitrocellulose blotting membranes, and incubated with primary antibodies overnight at 4° C., followed by incubation with HRP-conjugated secondary antibodies for 1 hour at room temperature before autoradiography. […]
# [2] = system: decellularized rat lung scaffolds; test: In vivo metabolic labeling of rat lung ECM with azide-labeled sugars
# Protocol: All animal experiments were approved by the Massachusetts General Hospital Institutional Animal Care and Use Committee and performed in compliance with the Animal Welfare Act. Male Sprague-Dawley rats (100-125 g, Charles River Laboratories) was administered with metabolic labeling reagents (Ac4GalNAz, Ac4GlcNAz or Ac4ManNAz) (30 mg/day, Click Chemistry Tools) via intraperitoneal injection daily for three days. […] Decellularized organ and tissue scaffolds were washed sequentially with distilled water, 1% Triton X and PBS.
# (§1) All samples were fixed with 4% paraformaldehyde (Boston BioProducts), paraffin-embedded, and sectioned at 5-μm thickness. Following deparaffinization, rehydration and antigen retrieval using Antigen Unmasking Solution (Vector Laboratories), the sections were processed for either on-section click reaction or regular histological staining. For on-section click reaction, sections of acellular organ scaffolds derived from in vivo or ex vivo metabolic engineering were incubated with Biotin-Alkyne click reaction mix, with and without copper (II) sulfate, for 1 hour at room temperature, followed by extensive washing with PBS. For regular histological staining of biotin and Laminin, the sections were incubated with Rabbit-anti-Laminin antibody (Abcam, ab11575, 1:200) overnight at 4° C., followed by staining with Alexa Fluor 488-conjugated Donkey-anti-Rabbit antibody (A-21206, 1:500) and Alexa Fluor 647-conjugated Streptavidin (Life Technologies, S-32357, 1:500). Images were acquired using a Nikon Eclipse TE200 microscope and NIS-Elements imaging software. The fluorescence intensity of Azide-Biotin-Streptavidin and Laminin staining was quantified using ImageJ (NIH).
# To conjugate Biotin-Alkyne onto the azide-labeled acellular lung ECM for Western blot analysis, a small piece of lung tissue was homogenized with gentleMACS Dissociator (Miltenyi Biotec) in PBS, and incubated with 1 ml Biotin-Alkyne click reaction mix for 1 hour at room temperature, followed by extensive washing in PBS. The ECM proteins from the clicked lung tissue was extracted using urea buffer as described below. […] Following BCA quantification, the protein samples were analyzed using SDS-PAGE under reducing condition, transferred to nitrocellulose blotting membranes, and incubated with primary antibodies overnight at 4° C., followed by incubation with HRP-conjugated secondary antibodies for 1 hour at room temperature before autoradiography. […]
# [3] = system: decellularized scaffolds of the rat carotid artery, heart, liver, kidney and skin; test: In vivo metabolic labeling of ECM of other rat organs/tissues
# Protocol: Male Sprague-Dawley rats (100-125 g, Charles River Laboratories) was administered with metabolic labeling reagents (Ac4GalNAz, Ac4GlcNAz or Ac4ManNAz) (30 mg/day, Click Chemistry Tools) via intraperitoneal injection daily for three days. […] Full-thickness skin grafts were harvested from the abdomen of the animal and decellularized by immersion with agitation in 1% SDS. Decellularized organ and tissue scaffolds were washed sequentially with distilled water, 1% Triton X and PBS.
# as §1
# For metabolic engineering of organs/tissues in vivo in the rat model, azide-labeled sugars (300 mg/kg body weight in 70% DMSO) were administered through intraperitoneal injection daily. One day after the last azide-labeled sugar administration, organs/tissues were harvested and perfusion decellularized (See FIGS. 1 and 13). The presence of azide labeling in the decellularized scaffolds were evaluated by performing copper-catalyzed click reaction. […]
# rat lung ECM = test: Ex vivo metabolic engineering of rat lung ECM; settings: 50 μM, one day, bioreactor perfusion 5 ml/min, Cu(I) catalyst in click with biotin-alkyne
# Protocol: For ex vivo metabolic engineering of the rat lung, the lung was freshly harvested from a male Sprague-Dawley rat (100-125 g). The isolated rat lung was cultured in 100 ml of DMEM/F12 medium containing 10% fetal bovine serum (DMEM/F12-FBS), with the supplementation of Ac4GalNAz (50 μM) or DMSO (0.1%), for 24 hours in a bioreactor under constant rate perfusion (5 ml/min) through the PA, followed by perfusion decellularization as described above.
# All samples were fixed with 4% paraformaldehyde (Boston BioProducts), paraffin-embedded, and sectioned at 5-μm thickness. Following deparaffinization, rehydration and antigen retrieval using Antigen Unmasking Solution (Vector Laboratories), the sections were processed for either on-section click reaction or regular histological staining. […] For regular histological staining of biotin and Laminin, the sections were incubated with Rabbit-anti-Laminin antibody (Abcam, ab11575, 1:200) overnight at 4° C., followed by staining with Alexa Fluor 488-conjugated Donkey-anti-Rabbit antibody (A-21206, 1:500) and Alexa Fluor 647-conjugated Streptavidin (Life Technologies, S-32357, 1:500). […] The fluorescence intensity of Azide-Biotin-Streptavidin and Laminin staining was quantified using ImageJ (NIH). […]
# The presence of azide labeling in the decellularized scaffolds were evaluated by performing copper-catalyzed click reaction. […]
# [4] = Copper-free click reaction of DBCO-activated biotin on donor lung during cold preservation; design: species or system rat; settings: DBCO-activated biotin 100 μM in Perfadex on ice, within one hour
# Protocol: The procedure involves two steps. In the first step, the donor rat was injected with Ac4GalNAz for three days (as described in Example 4). This allowed for metabolic labeling of the donor lung with azido tags. In the second step, the donor lung with azido labeling was preserved in preservation solution (Perfadex) containing DBCO-activated biotin at 100 μM concentration on ice for 1 hour. The lung was then intensively washed with preservation solution (Perfadex) and prepared for transplantation. The lung is fixed for histological staining of the immobilized biologically active molecule (as exemplified by biotin).
# DBCO-activated biotin was used a proof-of-principle.
# [5] = Click reaction of azide-labeled decellularized rat epigastric flaps with Vancomycin-alkyne; settings: Ac4GalNAz-labeled REF versus DMSO control, Vancomycin-alkyne 100 μM click
# Protocol: Vancomycin is made clickable by conjugating an alkyne group to the only primary amine present as described above (see, e.g., FIG. 22, Example 3). The structure of the resulting clickable vancomycin-alkyne was confirmed by LC-MS/MS analysis (FIG. 23). Using the previously described click reaction, Vancomycin was immobilized onto the ECM. Copper-catalyzed click reaction was performed on decellularized rat epigastric flaps by perfusion (0.5 ml/min) using Vancomycin-alkyne (100 μM) and Click-iT® Cell Reaction Buffer Kit (ThermoFisher, Catalog number: C10269) for one hour at room temperature, followed by intensive washing and detection of immobilized vancomycin using a vancomycin-specific antibody.
smiles,measurement,setting,value
"CC(=O)OC[C@H]1OC(OC(C)=O)[C@H](NC(=O)CN=[N+]=[N-])[C@@H](OC(C)=O)[C@H]1OC(C)=O (stereo partly shown) [Ac4GalNAz, tetraacylated N-azidoacetylgalactosamine]",azide incorporation into acellular porcine lung ECM after ex vivo culture,[1],specific and covalent azide incorporation
same,metabolic labeling efficiency of decellularized rat lung scaffolds,"[2]; 3 days of metabolic labeling in donor rats, comparing to Ac4GlcNAz and Ac4ManNAz",superior labeling efficiency
same,biotin labeling of isolated lung ECM proteins by western blot,[2]; after click conjugation with biotin-alkyne,abundance of biotin labeling
same,metabolic azide labeling intensity in acellular lungs,"[2]; azide-biotin-streptavidin intensity normalized to Laminin, compared with Ac4ManNAz and Ac4GlcNAz",strongest
same,in vivo metabolic azide labeling of decellularized scaffolds,"[3]; rat carotid artery, heart, liver, kidney and skin, three-day intraperitoneal administration",efficient; also recorded: strong and specific ECM labeling
same,metabolic labeling of decellularized scaffolds of blood vessels and skin flaps,"[3]; rat, 3 days of metabolic labeling",efficient metabolic labeling
same,azide labeling of the lung ECM after ex vivo culture,rat lung ECM,robust covalent azide labeling
O=C(O)CCCC[C@@H]1SC[C@@H]2NC(=O)N[C@@H]21 [biotin],immobilization of biotin onto donor lung tissue,[4],high efficiency
"CN[C@H](CC(C)C)C(=O)N[C@H]1C(=O)N[C@@H](CC(N)=O)C(=O)N[C@H]2C(=O)N[C@H]3C(=O)N[C@H](C(=O)N[C@H](C(=O)O)c4cc(O)cc(O)c4-c4cc3ccc4O)[C@H](O)c3ccc(c(Cl)c3)Oc3cc2cc(c3O[C@@H]2O[C@H](CO)[C@@H](O)[C@H](O)[C@H]2O[C@H]2C[C@](C)(N)[C@H](O)[C@H](C)O2)Oc2ccc(cc2Cl)[C@H]1O [vancomycin, Vancomycin]",vancomycin staining fluorescence intensity on whole mount REF,[5]; p<0.001,increase
same,vancomycin staining fluorescence intensity on REF cross-sections,[5]; p<0.05,increase
